Test results published in article PMC3192784, “A Potent Inhibitor of SIK2, 3, 3′, 7-Trihydroxy-4′-Methoxyflavon (4′-O-Methylfisetin), Promotes Melanogenesis in B16F10 Melanoma Cells” (PLoS ONE, 2011).

Legend:
[1] = target: T1, SIK2 (salt inducible kinase 2) (Mus musculus, UniProt Q8CFH6); assay: in vitro kinase ELISA with GST-TORC2 peptide substrate; format: biochemical
T1 construct: GST-SIK2 expressed in COS-7 cells

[2] = target: T1, SIK2 (salt inducible kinase 2); assay: as above; format: biochemical; remark: listed apart in the source

T1 sequence (Q8CFH6 whole entry): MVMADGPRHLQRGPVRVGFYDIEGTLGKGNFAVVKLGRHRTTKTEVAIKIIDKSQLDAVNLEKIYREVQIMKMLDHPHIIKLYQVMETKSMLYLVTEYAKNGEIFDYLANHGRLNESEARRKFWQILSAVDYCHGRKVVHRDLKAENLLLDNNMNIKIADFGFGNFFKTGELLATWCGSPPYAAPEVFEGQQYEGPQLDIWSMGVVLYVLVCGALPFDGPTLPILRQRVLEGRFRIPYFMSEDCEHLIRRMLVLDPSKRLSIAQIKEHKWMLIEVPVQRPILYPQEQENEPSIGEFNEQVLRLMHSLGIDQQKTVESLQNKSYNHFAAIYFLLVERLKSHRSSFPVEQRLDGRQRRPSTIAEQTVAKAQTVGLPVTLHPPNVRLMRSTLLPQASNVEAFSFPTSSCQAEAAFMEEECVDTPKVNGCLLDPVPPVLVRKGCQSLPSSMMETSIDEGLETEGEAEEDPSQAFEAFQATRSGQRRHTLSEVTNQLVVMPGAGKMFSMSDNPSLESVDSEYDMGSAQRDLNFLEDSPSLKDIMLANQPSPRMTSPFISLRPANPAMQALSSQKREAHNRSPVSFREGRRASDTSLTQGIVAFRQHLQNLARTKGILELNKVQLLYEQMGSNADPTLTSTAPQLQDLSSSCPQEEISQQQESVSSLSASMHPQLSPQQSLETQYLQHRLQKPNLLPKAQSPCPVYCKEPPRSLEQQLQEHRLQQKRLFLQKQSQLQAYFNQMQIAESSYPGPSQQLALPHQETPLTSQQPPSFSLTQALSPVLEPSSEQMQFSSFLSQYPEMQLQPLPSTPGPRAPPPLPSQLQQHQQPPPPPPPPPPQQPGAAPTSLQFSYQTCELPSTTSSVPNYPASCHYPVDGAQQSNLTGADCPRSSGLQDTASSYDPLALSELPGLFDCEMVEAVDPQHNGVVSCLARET

Structure (SMILES)	in vitro kinase ELISA with GST-TORC2 peptide substrate [1]	IC50 [2]
O=c1c(O)c(-c2ccc(O)c(O)c2)oc2cc(O)ccc12 [fisetin]	~ 50 nM	–
O=c1c(O)c(-c2ccc(O)c(O)c2)oc2cc(O)cc(O)c12 [quercetin]	–	500 nM
O=c1cc(-c2ccc(O)c(O)c2)oc2cc(O)cc(O)c12 [luteolin]	efficiency of SIK2-kinase inhibition in vitro by their non-methylated cognates (fisetin > luteolin > quercetin)	–
COc1ccc(-c2cc(=O)c3c(O)cc(O)cc3o2)cc1O [diosmetin]	50 to 500 nM	–
